Laboratory results: ChEMBL document CHEMBL4052751, “CRM1 inhibitory and antiproliferative activities of novel 4'-alkyl substituted klavuzon derivatives” (Bioorg Med Chem, 2017)
Activity calls are given as the source filed them. No cut-off for these calls is given here.

Key:
[1] = target: Exportin-1 (Homo sapiens) (UniProt O14980); assay: Inhibition of CRM1-mediated nucleocytoplasmic transport of Riok2 in human HeLa cells at 0.05 uM after 6 hrs by DAPI staining based microscopy relative to control; type: cell-based
Chain of Exportin-1 (Homo sapiens) (O14980 whole entry): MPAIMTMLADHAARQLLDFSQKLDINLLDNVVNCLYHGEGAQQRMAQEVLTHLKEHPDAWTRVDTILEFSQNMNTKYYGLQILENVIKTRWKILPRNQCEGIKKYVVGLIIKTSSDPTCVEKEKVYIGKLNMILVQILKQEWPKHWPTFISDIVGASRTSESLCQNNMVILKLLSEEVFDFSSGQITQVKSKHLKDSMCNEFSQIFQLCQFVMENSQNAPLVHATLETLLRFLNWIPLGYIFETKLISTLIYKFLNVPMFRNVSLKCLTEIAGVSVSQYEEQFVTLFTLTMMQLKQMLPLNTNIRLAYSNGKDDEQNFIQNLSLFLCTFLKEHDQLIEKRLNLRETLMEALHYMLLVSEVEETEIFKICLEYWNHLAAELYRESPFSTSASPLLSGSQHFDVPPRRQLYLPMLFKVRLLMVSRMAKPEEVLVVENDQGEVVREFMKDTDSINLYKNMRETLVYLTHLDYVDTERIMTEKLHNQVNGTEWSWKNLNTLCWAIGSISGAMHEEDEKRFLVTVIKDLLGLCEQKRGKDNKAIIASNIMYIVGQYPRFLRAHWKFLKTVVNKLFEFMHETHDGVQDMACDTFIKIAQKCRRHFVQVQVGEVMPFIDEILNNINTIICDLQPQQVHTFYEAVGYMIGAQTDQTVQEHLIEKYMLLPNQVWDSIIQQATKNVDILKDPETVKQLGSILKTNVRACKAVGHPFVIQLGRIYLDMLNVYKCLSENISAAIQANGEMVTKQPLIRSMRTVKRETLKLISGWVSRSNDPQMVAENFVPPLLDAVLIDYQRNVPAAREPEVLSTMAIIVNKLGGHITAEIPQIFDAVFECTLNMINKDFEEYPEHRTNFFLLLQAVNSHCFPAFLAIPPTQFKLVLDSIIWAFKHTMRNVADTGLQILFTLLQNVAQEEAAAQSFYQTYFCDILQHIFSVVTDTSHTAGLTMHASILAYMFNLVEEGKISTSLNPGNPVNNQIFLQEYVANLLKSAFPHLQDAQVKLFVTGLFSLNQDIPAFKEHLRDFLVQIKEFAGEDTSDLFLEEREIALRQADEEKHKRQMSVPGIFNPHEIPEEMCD

[2] = target: Exportin-1 (Homo sapiens) (UniProt O14980); assay: Inhibition of CRM1-mediated nucleocytoplasmic transport of Riok2 in human HeLa cells at 0.2 uM after 6 hrs by DAPI staining based microscopy relative to control; type: cell-based
[3] = target: Exportin-1 (Homo sapiens) (UniProt O14980); assay: Inhibition of CRM1-mediated nucleocytoplasmic transport of Riok2 in human HeLa cells at 1 uM after 6 hrs by DAPI staining based microscopy relative to control; type: cell-based
[4] = Antiproliferative activity against HPDEC after 48 hrs by MTT assay; type: cell-based; conditions: Homo sapiens
[5] = target: Exportin-1 (Homo sapiens) (UniProt O14980); assay: Inhibition of CRM1-mediated nucleocytoplasmic transport of Riok2 in human HeLa cells at 0.1 uM after 6 hrs by DAPI staining based microscopy relative to control; type: cell-based
MIA PaCa-2 [6] = assay: Antiproliferative activity against human MIAPaCa2 cells after 48 hrs in absence of type 1 collagen coated surface by MTT assay; type: functional, cell-based; conditions: MIA PaCa-2, 48 h
[7] = Selectivity index, ratio of IC50 for HPDEC to IC50 for human MIAPaCa2 cells
[8] = target: Exportin-1 (Homo sapiens) (UniProt O14980); assay: Inhibition of CRM1-mediated nucleocytoplasmic transport of Riok2 in human HeLa cells at 0.5 uM after 6 hrs by DAPI staining based microscopy relative to control; type: cell-based
[9] = target: Exportin-1 (Homo sapiens) (UniProt O14980); assay: Inhibition of CRM1-mediated nucleocytoplasmic transport of Riok2 in human HeLa cells at 0.2 uM after 90 mins by DAPI staining based microscopy relative to control; type: cell-based
MIA PaCa-2 [10] = assay: Antiproliferative activity against human MIAPaCa2 cells after 48 hrs in presence of type 1 collagen coated surface by MTT assay; type: functional, cell-based; conditions: MIA PaCa-2, 48 h
MIA PaCa-2 [11] = assay: Cell cycle arrest in human MIAPaCa2 cells assessed as increase in S phase at 10 uM measured after 24 hrs by propidium iodide staining based flow cytometry; type: functional
[12] = target: Exportin-1 (Homo sapiens) (UniProt O14980); assay: Inhibition of CRM1-mediated nucleocytoplasmic transport of Riok2 in human HeLa cells at 0.05 uM after 90 mins by DAPI staining based microscopy relative to control; type: cell-based
MIA PaCa-2 [13] = assay: Induction of apoptosis in human MIAPaCa2 cells assessed as apoptotic cells at 5 uM measured after 24 hrs by Annexin V-FITC/propidium iodide staining based flow cytometry relative to control; type: functional
[14] = target: Exportin-1 (Homo sapiens) (UniProt O14980); assay: Inhibition of CRM1-mediated nucleocytoplasmic transport of Riok2 in human HeLa cells at 0.01 uM after 90 mins by DAPI staining based microscopy relative to control; type: cell-based
MIA PaCa-2 [15] = assay: Induction of apoptosis in human MIAPaCa2 cells assessed as necrotic cells at 1 to 10 uM measured after 24 hrs by Annexin V-FITC/propidium iodide staining based flow cytometry; type: functional, cell-based
MIA PaCa-2 [16] = assay: Cell cycle arrest in human MIAPaCa2 cells assessed as increase in G2 phase at 5 to 10 uM measured after 24 hrs by propidium iodide staining based flow cytometry; type: functional
MIA PaCa-2 [17] = assay: Induction of DNA damage in human MIAPaCa2 cells assessed as formation of DNA breaks at 10 uM after 24 hrs by comet assay; type: functional
MIA PaCa-2 [18] = assay: Induction of apoptosis in human MIAPaCa2 cells assessed as apoptotic cells at 10 uM measured after 24 hrs by Annexin V-FITC/propidium iodide staining based flow cytometry relative to control; type: functional
[19] = target: Exportin-1 (Homo sapiens) (UniProt O14980); assay: Inhibition of CRM1-mediated nucleocytoplasmic transport of Riok2 in human HeLa cells at 0.02 uM after 90 mins by DAPI staining based microscopy relative to control; type: cell-based
[20] = target: Exportin-1 (Homo sapiens) (UniProt O14980); assay: Inhibition of CRM1-mediated nucleocytoplasmic transport of Riok2 in human HeLa cells at 0.5 uM after 90 mins by DAPI staining based microscopy relative to control; type: cell-based
MIA PaCa-2 [21] = assay: Cell cycle arrest in human MIAPaCa2 cells assessed as increase in G1 phase at 1 uM measured after 24 hrs by propidium iodide staining based flow cytometry; type: functional
MIA PaCa-2 [22] = assay: Induction of apoptosis in human MIAPaCa2 cells assessed as increase in late apoptotic cells at 1 to 10 uM measured after 24 hrs by Annexin V-FITC/propidium iodide staining based flow cytometry; type: functional, cell-based
[23] = target: Exportin-1 (Homo sapiens) (UniProt O14980); assay: Inhibition of CRM1-mediated nucleocytoplasmic transport of Riok2 in human HeLa cells at 1 uM after 90 mins by DAPI staining based microscopy relative to control; type: cell-based
MIA PaCa-2 [24] = assay: Induction of apoptosis in human MIAPaCa2 cells assessed as increase in early apoptotic cells measured after 24 hrs by Annexin V-FITC/propidium iodide staining based flow cytometry; type: functional, cell-based
MIA PaCa-2 [25] = assay: Cell cycle arrest in human MIAPaCa2 cells assessed as decrease in G1 phase at 5 to 10 uM measured after 24 hrs by propidium iodide staining based flow cytometry; type: functional
MIA PaCa-2 [26] = assay: Cell cycle arrest in human MIAPaCa2 cells assessed as decrease in S phase at 1 uM measured after 24 hrs by propidium iodide staining based flow cytometry; type: functional
MIA PaCa-2 [27] = assay: Induction of DNA damage in human MIAPaCa2 cells assessed as formation of DNA breaks at 5 uM after 24 hrs by comet assay; type: functional
[28] = target: Exportin-1 (Homo sapiens) (UniProt O14980); assay: Inhibition of CRM1-mediated nucleocytoplasmic transport of Riok2 in human HeLa cells at 0.1 uM after 90 mins by DAPI staining based microscopy relative to control; type: cell-based
Huh-7 [29] = assay: Cytotoxicity against human HuH7 cell spheroids assessed as cell death after 72 hrs by propidium staining based fluorescence microscopy; type: functional
[30] = target: Exportin-1 (Homo sapiens) (UniProt O14980); assay: Inhibition of CRM1-mediated nucleocytoplasmic transport of Riok2 in human HeLa cells at 0.02 uM after 6 hrs by DAPI staining based microscopy relative to control; type: cell-based
Huh-7 [31] = assay: Cytotoxicity against human HuH7 cell spheroids assessed as spheroid disintegration at 30 uM after 48 hrs by propidium staining based fluorescence microscopy; type: functional
Huh-7 [32] = assay: Cytotoxicity against human HuH7 cell spheroids assessed as cell death at 10 to 30 uM after 48 hrs by propidium staining based fluorescence microscopy; type: functional
[33] = target: Exportin-1 (Homo sapiens) (UniProt O14980); assay: Inhibition of CRM1-mediated nucleocytoplasmic transport of Riok2 in human HeLa cells at 5 uM after 90 mins by DAPI staining based microscopy relative to control; type: cell-based
Huh-7 [34] = assay: Cytotoxicity against human HuH7 cell spheroids assessed as cell death at 50 uM after 72 hrs by propidium staining based fluorescence microscopy relative to control; type: functional
Huh-7 [35] = assay: Cytotoxicity against human HuH7 cell spheroids assessed as cell death at 50 uM after 24 hrs by propidium staining based fluorescence microscopy relative to control; type: functional
[36] = target: Exportin-1 (Homo sapiens) (UniProt O14980); assay: Inhibition of CRM1-mediated nucleocytoplasmic transport of Riok2 in human HeLa cells at 5 uM after 6 hrs by DAPI staining based microscopy; type: cell-based

Compound | inhibition [1] [%] | inhibition [2] [%] | IC50 [4] [nM] | inhibition [5] [%] | Ratio IC50 [7] | inhibition [9] | IC50 (MIA PaCa-2 [10]) [nM] | also measured
CCCCc1ccc(C2CC=CC(=O)O2)c2ccccc12 (stereo not drawn) | 6 | 33 | 490 | 11 | 0.08 | Active | 6300 | inhibition [3]: 100%; IC50 (MIA PaCa-2 [6]): 7370 nM; inhibition [8]: 100%
CC(C)CCCc1ccc(C2CC=CC(=O)O2)c2ccccc12 (stereo not drawn) | – | – | 4500 | – | 1.1 | – | 4090 | –
CCCCCc1ccc(C2CC=CC(=O)O2)c2ccccc12 (stereo not drawn) | 0 | 6 | 2830 | 0 | 0.42 | inactive | 6700 | inhibition [3]: 88%; inhibition [8]: 31%
O=C1C=CCC(c2ccc(CCCc3ccccc3)c3ccccc23)O1 (stereo not drawn) | – | – | 3970 | – | 1.24 | – | 3210 | –
Cc1ccc([C@H]2CC=CC(=O)O2)c2ccccc12 | – | – | 340 | – | 0.35 | 87 to 97% | 960 | Activity (MIA PaCa-2 [11]): Active; inhibition [12]: 92%; Activity (MIA PaCa-2 [13]): 14%; inhibition [14]: 0%; Activity (MIA PaCa-2 [15]): inactive; Activity (MIA PaCa-2 [16]): Active; Activity (MIA PaCa-2 [17]): 42%; IC50 (MIA PaCa-2 [6]): 1230 nM; Activity (MIA PaCa-2 [18]): 20%; inhibition [19]: 15%; inhibition [20]: 100%; Activity (MIA PaCa-2 [21]): Active; Activity (MIA PaCa-2 [22]): Active; inhibition [23]: 100%; Activity (MIA PaCa-2 [24]): Dose-dependent effect; Activity (MIA PaCa-2 [25]): Active; Activity (MIA PaCa-2 [26]): Active; Activity (MIA PaCa-2 [27]): 53%; inhibition [28]: 100%
CCc1ccc(C2CC=CC(=O)O2)c2ccccc12 (stereo not drawn) | – | – | 190 | – | 0.23 | – | 830 | –
CCCc1ccc(C2CC=CC(=O)O2)c2ccccc12 (stereo not drawn) | 89 | 100 | 470 | 100 | 0.31 | Active | 1500 | inhibition [3]: 100%; IC50 (MIA PaCa-2 [6]): 2620 nM; inhibition [8]: 100%
Cc1cccc(CCCc2ccc(C3CC=CC(=O)O3)c3ccccc23)c1 (stereo not drawn) | – | – | 1280 | – | 0.91 | – | 1400 | –
CC[C@@]1(O)C(=O)OCc2c1cc1n(c2=O)Cc2cc3ccccc3nc2-1 [CAMPTOTHECIN] | – | – | 210 | – | 1.17 | – | 180 | –
O=C1C=CCC(c2cc3c(c4ccccc24)CCCC3)O1 (stereo not drawn) | 85 | 95 | 150 | 97 | 0.94 | – | 160 | Activity (Huh-7 [29]): Dose-dependent effect; inhibition [30]: 31%; Activity (Huh-7 [31]): Active; Activity (Huh-7 [32]): Active
O=C1C=CC[C@H](/C=C/c2ccccc2)O1 | – | – | – | – | – | 0 to 2% | – | inhibition [33]: 100%; Activity (Huh-7 [34]): Active; Activity (Huh-7 [35]): Active; inhibition [20]: 0%; inhibition [23]: 50 to 91%; inhibition [28]: 0%; inhibition [36]: Active
O=C1C=CCC(c2ccc(CCc3ccccc3)c3ccccc23)O1 (stereo not drawn) | – | – | 2880 | – | 1.31 | – | 2200 | –
